Measured values as given in article PMC12771125, “Compounds Reducing Human Sperm Motility as Potential Nonhormonal Contraceptives Identified Using a High-Throughput Phenotypic Screening Platform” (ACS Omega, 2025).
≈ marks a conversion by molar mass, not a printed value. Read-outs that look alike come from different tables or passages of the source.

Assays:
human sperm = assay: Reduction of sperm motility (RSM) high-throughput phenotypic assay; format: cell-based; conditions: for EC50: Homo sapiens, reduction of progressive sperm motility relative to control
Method: Using our previously established phenotypic human sperm motility screening platform, we screened a large subset (62,621 compounds) of one of our in-house diversity libraries (National Phenotypic Screening Centre (NPSC) Diversity Set) (Figure A,B). Briefly, human sperm are collected, isolated from semen, distributed into 384-well plates with test compounds, time-lapse images of sperm movement are recorded using a high-content imager, and progressive motility parameters are calculated using custom data analysis software. Sperm motility is complicated, and the mechanisms underpinning its regulation are not fully understood. Progressive motility, which is a measurement of the movement of forward progression of sperm, is most closely linked to sperm quality, and the percentage of progressively motile sperm compared to control is therefore the parameter utilized during the work described in this paper. […]
We used an HTS screening platform to assess the motility of live human spermatozoa. The platform and its development are described in detail in Gruber et al. , and summarized below in brief. The platform was used to screen compound libraries specifically focusing on reduction in motility. Interesting compounds were examined in further detail as possible starting points for a medicinal chemistry program. The experimental design is illustrated in Figure .
Donors were local to the Dundee area, over the age of 18, and had no known fertility problems and normal sperm concentration, motility and semen characteristics according to WHO 2021 criteria. Special category personal data for donors, such as ethnic origin, was not recorded in accordance with ethical approval and UK GDPR. Samples were obtained by masturbation, after sexual abstinence of 2–5 days, and delivered to the research laboratory within one h of production. Samples were allowed to liquefy at 37 °C for 15–30 min prior to preparation by discontinuous density gradient centrifugation (DGC). […] A minimum of 3 prepared donor samples were routinely pooled to reduce donor-to-donor variability for primary screening assays. Pooled samples were incubated for 3 h at 37 °C under noncapacitating conditions.
In brief, screening batches of cells were transferred to a robotic platform (HighRes Biosolutions Inc.) and maintained during the screen at 37 °C at 5% CO2. Assay-ready 384-well plates containing compounds were prepared prior to the screen and filled with approximately 10,000 spermatozoa (20 μL) per well using a liquid handling system (MultiDrop Combi; ThermoFisher). These plates were incubated for 10 min prior to imaging. The HTS system utilized a Yokogawa CV7000 Cell Voyager high-throughput microscope to record time-lapse images from 2 positions in each well. An adaptation of a tracking algorithm, Trackpy v0.4.1 was utilized to track individual spermatozoa within each well and obtain kinematic parameters. Within the compound-test plates, DMSO was used as the vehicle control.
All steps were performed as previously described. , In summary, data from every compound well were normalized to those from in-plate DMSO controls (wells containing the same amount of DMSO as compound wells). Two positions were recorded in every well, and the average of those positions was used for calculating % of control (median value/DMSO median) × 100. Each plate contained 16 DMSO control wells. Median curvilinear velocity (VCL) was used as the primary readout for the NPSC Diversity Set screened at 6 μM, and percentage progressive motility (PM) was used for all other libraries screened. Hits from the primary screening were chosen based on the % change compared to the control. In these experiments, an RSM of ≥20% compared to negative controls (DMSO) was chosen as a cutoff for potential progression.
In a screening program of this scale, a significant number of compounds are likely to have a negative effect on sperm motility, but a number will show general toxicity. […]

HepG2 cells = assay: HepG2 cytotoxicity assay (resazurin, 72 h); format: cell-based, human; conditions: Homo sapiens, HepG2, 72 h; read-out: HepG2 pEC50 (converted)
Text: Our overarching aims for investigating our chemical series and deciding which ones had the potential for further progression were to achieve adequate potency in our motility assay, suitable solubility, and minimal cytotoxicity in HepG2 cells. This third point was often the most challenging, as multiple series had cytotoxicity in HepG2 cells. This observation is perhaps not surprising; many potential targets in sperm cells can also be found in somatic cells. Our cytotoxicity assay is run with an incubation time of 72 h, to give time for gross cytotoxic effects to become apparent.
Compound dilution curves were plated directly using a Labcyte Echo 550 acoustic dispenser (125 nL) in 384-well white clear-bottom plates (Greiner). HepG2 cells (ATCCHepG2 HB-8065) were cultured in minimum essential medium (supplemented with glutamax) with 10% FCS and plated (25 μL) using a WellMate dispenser ([…]) and incubated for 72 h. Doxorubicin was used as a positive control drug. Resazurin was then added to each well at a final concentration of 45 μM, and fluorescence was measured using a PHERAstar LS (BMG Labtech) after 4 h of further incubation (excitation of 528 nm and emission of 590 nm). Raw data were normalized to controls and expressed as % growth.
Figure S2: Concentration-response curves from high throughput HepG2 viability assay. Each compound was tested in duplicate and the curves of each replicate are shown. The reported values in the tables are an average of the 2 pEC50 values obtained. […]
determine 0% effect, positive control used to determine 100% effect).
Hit compounds 1a, 6b and 7a were repurchased from commercial suppliers including enamine and […]

Aqueous solubility = format: physicochemical
[1] = 10 min, 10 min incubation, reported <X (neg. log of top concentration) if largest reduction <70%, read-out: RSM pEC50 10 mins (converted)
[2] = 3 h incubation, reported <X if largest reduction <70%, read-out: RSM pEC50 3 hrs (converted)
[3] = 6 h incubation, reported <X if largest reduction <70%, read-out: RSM pEC50 6 hrs (converted)

Row | Structure (SMILES) | difference between pEC50 in the sperm motility assay and pEC50 in the HepG2 cytotoxicity assay (human sperm) | EC50 (human sperm; [1]) [µM] | EC50 (human sperm; [2]) [µM] | EC50 (human sperm; [3]) [µM] | EC50 (HepG2 cells) [µM] | solubility (Aqueous solubility) [µM]
1 | Cc1sc(NC(=O)Nc2ccc(F)cc2F)nc1-c1ccccn1 [Compound 3m] | less than 1 log units | > 31.6 | 15.8 | 2 | 12.6 | 0.38 (≈ 0.132 µg/mL)
2 | CNC(=O)c1ccccc1Nc1nc(Nc2ccc(N3CCOCC3)cc2OC)ncc1Cl [Compound 2b] | – | 2.51 | – | – | 2 | 2.2 (≈ 1.03 µg/mL)
3 | Cc1cc(NC(=O)c2ccccc2)n(-c2ccccc2)n1 [Compound 6e] | – | > 31.6 | > 31.6 | > 31.6 | > 100 | 240 (≈ 66.6 µg/mL)
4 | O=C(Nc1nc2c(Cl)c(Cl)ccc2s1)C1CC1 [Compound 4d] | – | 10 | 3.98 | 3.98 | 50.1 | 12 (≈ 3.45 µg/mL)
5 | Cc1ccc2sc(NC(=O)C3CC3)nc2c1C [Compound 4m] | – | > 31.6 | > 31.6 | > 31.6 | > 100 | 5.5 (≈ 1.35 µg/mL)
6 | O=C(Nc1nc(-c2ccc(F)cc2F)cs1)Nc1ccc(F)cc1F [Compound 3f] | – | > 31.6 | > 31.6 | > 31.6 | > 100 | 0.29 (≈ 0.107 µg/mL)
7 | O=C(Nc1nc2c(Cl)cccc2s1)C1CC1 [Compound 4i] | – | > 31.6 | > 31.6 | > 31.6 | > 100 | 5.1 (≈ 1.29 µg/mL)
8 | CN1CCN(c2cc(N3CCCCC3)c3ccccc3n2)CC1 [Compound 7g] | – | > 31.6 | > 31.6 | > 31.6 | 50.1 | 210 (≈ 65.2 µg/mL)
9 | CC(=O)Nc1nc2c(Cl)c(Cl)ccc2s1 [Compound 4a, N-(4,5-Dichlorobenzo[d]thiazol-2-yl)acetamide] | ~1 log units | 12.6 | 5.01 | 3.98 | 50.1 | 200 (≈ 52.2 µg/mL)
10 | O=C(Nc1nc2cc(Cl)ccc2s1)C1CC1 [Compound 4j] | – | > 31.6 | > 31.6 | > 31.6 | > 100 | 3.4 (≈ 0.859 µg/mL)
11 | CC(C)C(=O)Nc1nc2c(Cl)c(Cl)ccc2s1 [Compound 4c] | – | 10 | 6.31 | 5.01 | 50.1 | 18 (≈ 5.21 µg/mL)
12 | NCCN(C(=O)c1ccccc1Cl)c1ccc(Cl)cc1 [Compound 1l] | – | > 31.6 | > 31.6 | > 31.6 | 79.4 | 240 (≈ 74.2 µg/mL)
13 | O=C(Nc1nc2c(Cl)c(Cl)ccc2s1)C1CCCC1 [Compound 4f] | – | 10 | 5.01 | 3.98 | 50.1 | 4.2 (≈ 1.32 µg/mL)
14 | O=C(Nc1nc(-c2ccccn2)cs1)c1ccccc1Cl [Compound 3c] | – | > 31.6 | > 31.6 | > 31.6 | > 100 | 100 (≈ 31.6 µg/mL)
15 | O=C(Nc1nc(-c2cccnc2)cs1)Nc1ccc(F)cc1F [Compound 3d] | – | > 31.6 | > 31.6 | > 31.6 | > 100 | 1.5 (≈ 0.499 µg/mL)
16 | c1ccc2c(N3CCCCC3)cc(N3CCOCC3)nc2c1 [Compound 7d] | – | > 31.6 | > 31.6 | > 31.6 | > 100 | 140 (≈ 41.6 µg/mL)
